As usually defined, the IC50 is the concentration needed to halve the response being measured.

Each structure is given as a SMILES string.

In the test the target is T1, human EP3 receptor (Homo sapiens, UniProt P43115).
T1 construct: expressed in transfected cells; host or cells: CHO K1 (Chinese Hamster Ovary), stably co-transfected with Galpha16 and mitochondrial clytin
T1 sequence (P43115 1-390): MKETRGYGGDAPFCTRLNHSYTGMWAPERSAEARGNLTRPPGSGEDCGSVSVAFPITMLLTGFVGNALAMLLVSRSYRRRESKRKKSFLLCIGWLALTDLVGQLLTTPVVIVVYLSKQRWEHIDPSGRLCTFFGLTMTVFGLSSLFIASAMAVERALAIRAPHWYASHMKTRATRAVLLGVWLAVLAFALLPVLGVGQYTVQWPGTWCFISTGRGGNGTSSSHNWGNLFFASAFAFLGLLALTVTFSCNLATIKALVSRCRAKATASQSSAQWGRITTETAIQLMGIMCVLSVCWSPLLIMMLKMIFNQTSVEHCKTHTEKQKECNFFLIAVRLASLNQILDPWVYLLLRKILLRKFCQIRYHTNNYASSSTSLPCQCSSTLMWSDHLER
Description: Cellular in vitro assay for determining EP3 receptor activity (human EP3 cell line, sulprostone-stimulated calcium luminescence). To be noted: CHO cells expressing human EP3 and mitochondrial Clytin; antagonist mode, sulprostone at EC50; read-out: EP3 CHO mtCLY ANTAG IC50. Format: cell-based. Put shortly:
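CHO K1 cells stably expressing human EP3 with Gα16 and mitochondrial Clytin, loaded overnight with coelenterazine. Compounds added 10 min before sulprostone at its EC50; antagonism read immediately as reduced calcium-driven luminescence, quadruplicate points.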
Regarding `Cc1ccc(-c2cn3nc(C(=O)N[C@H](C)c4ccc(F)cc4)c(C4CC4)c3c(=O)[nH]2)cc1C` [Example 1-84, 3-Cyclopropyl-6-(3,4-dimethylphenyl)-N-[(1R)-1-(4-fluorophenyl)ethyl]-4-oxo-4,5-dihydropyrazolo[1,5-a]pyrazine-2-carboxamide], the concentration for half-maximal inhibition (IC50) turned out to be 1.2 nM.
As to `Cc1cc(-c2cn3nc(C(=O)NC4(c5ccccc5)CCOCC4)c(C4CC4)c3c(=O)[nH]2)ccc1Cl` [6-342], the half-inhibitory concentration (IC50) was 1.07 nM.
With `Cc1ccc(-c2cn3nc(C(=O)N[C@@H](c4ccccc4)[C@@H](O)CO)cc3c(=O)[nH]2)cc1C` [6-353], the 50% inhibitory concentration (IC50) was 3.73 nM.
As for `C[C@H](NC(=O)c1nn2cc(-c3ccc(Cl)c(F)c3)[nH]c(=O)c2c1C1CC1(F)F)C1CC1` (stereo partly shown) [6-566], the figure is 2.25 nM.
Take `Cc1ccc(-c2cn3nc(C(=O)N[C@H](C)CO)c(C4CCC4)c3c(=O)[nH]2)cc1F` [6-575]: the IC50 came to 1.95 nM.
As for `COC[C@@H](C)NC(=O)c1nn2cc(-c3ccc(C(F)(F)F)c(C)c3)[nH]c(=O)c2c1C1CC1` [6-136], the figure is 7.5 nM.
Under `CCN1CCC(NC(=O)c2nn3cc(-c4ccc(C)c(F)c4)[nH]c(=O)c3c2C2CC2)(C(F)(F)F)C1` (single isomer, unassigned) [6-405] stands 4.7 nM.
Under `COc1ccc(CNC(=O)c2nn3cc(-c4ccc5ccccc5c4)[nH]c(=O)c3c2C(C)C)cc1OC` [Example 1-10, N-(3,4-Dimethoxybenzyl)-6-(naphthalen-2-yl)-4-oxo-3-(propan-2-yl)-4,5-dihydropyrazolo[1,5-a]-pyrazine-2-carboxamide] stands 0.58 nM; under `Cc1cccc2ncc(-c3cn4nc(C(=O)NC(C)CC5CC5)c(C(C)C)c4c(=O)[nH]3)cc12` (stereo not shown) [Example 4-18, N-(1-Cyclopropylpropan-2-yl)-3-isopropyl-6-(5-methylquinolin-3-yl)-4-oxo-4,5-dihydropyrazolo[1,5-a]pyrazine-2-carboxamide], 1.05 nM.
For `C[C@@H](NC(=O)c1cc2c(=O)[nH]c(-c3ccc4ccccc4c3)cn2n1)c1ccc2ccccc2c1` [Example 2-41, 6-(2-Naphthyl)-N-[(7R)-1-(2-naphthyl)ethyl]-4-oxo-4,5-dihydropyrazolo[1,5-a]pyrazine-2-carboxamide], the IC50 was 2.15 nM.
For the molecule `Cc1ccc(-c2cn3nc(C(=O)N[C@@H](c4ccc(F)cc4)C(C)(C)O)cc3c(=O)[nH]2)cc1F` [6-644], the IC50 was 6.55 nM.
With `COC[C@@H](NC(=O)c1nn2cc(-c3ccc(C)c(Cl)c3)[nH]c(=O)c2c1C(F)(F)F)c1ccccc1` [6-177], the 50% inhibitory concentration (IC50) was found to be 0.67 nM.
Regarding `CC(C)(O)[C@@H](NC(=O)c1nn2cc(-c3cc(F)c(Cl)cc3F)[nH]c(=O)c2c1C1CC1)c1ccc(F)cc1` [6-584], the IC50 was determined as 7.4 nM.
Regarding `Cc1cccc2ncc(-c3cn4nc(C(=O)NCc5cccc(CN(C)C)c5)c(C(C)C)c4c(=O)[nH]3)cc12` [Example 4-2, N-({3-[(Dimethylamino)methyl]phenyl}methyl)-6-(5-methylquinolin-3-yl)-4-oxo-3-(propan-2-yl)-4,5-dihydropyrazolo[1,5-a]pyrazine-2-carboxamide], the IC50 turned out to be 2.8 nM.
As to `Cc1ccc(-c2cn3nc(C(=O)NCC(O)C(F)F)c(C4CC4)c3c(=O)[nH]2)cc1F` (single isomer, unassigned) [6-371], the 50% inhibitory concentration (IC50) worked out at 2.7 nM.
For `CC[C@@H](C)NC(=O)c1nn2cc(-c3ccc(Cl)c(C)c3)[nH]c(=O)c2c1C1CC1` [6-332], the IC50 worked out at 2 nM.
As for `Cc1cc(-c2cn3nc(C(=O)NC(C)(C)C4CC4)c(C(F)(F)F)c3c(=O)[nH]2)ccc1Cl` [6-220], the figure is 1.18 nM; as for `Cc1cccc2ncc(-c3cn4nc(C(=O)NCc5ccc(CN6CCCC6)cc5)c(C(C)C)c4c(=O)[nH]3)cc12` [Example 4-48, 6-(5-Methylquinolin-3-yl)-4-oxo-3-(propan-2-yl)-N-({4-[(pyrrolidin-1-yl)methyl]phenyl}methyl)-4,5-dihydropyrazolo[1,5-a]pyrazine-2-carboxamide], 4.75 nM.
Under `CC(NC(=O)c1cc2c(=O)[nH]c(-c3ccc4ccccc4c3)cn2n1)c1ccc(O)cc1` (single isomer, unassigned) [6-542] stands 10.5 nM.
Turning to `O=C(NC(CO)c1ccc(F)cc1)c1cc2c(=O)[nH]c(-c3ccc4cccc(F)c4c3)cn2n1` (stereo not shown) [6-37], the 50% inhibitory concentration (IC50) stood at 1.31 nM.
As for `Cc1cc(-c2cn3nc(C(=O)N[C@@H](c4ccc(F)cc4)C(C)(C)O)c(C4CCC4)c3c(=O)[nH]2)ccc1Cl` [6-620], the figure is 1.5 nM.
For the molecule `Cc1c(C(=O)NC(C)c2ccc(Cl)c(Cl)c2)nn2c(C)c(-c3ccc4ccccc4c3)[nH]c(=O)c12` (stereo not shown) [Example 3-16, N-[1-(3,4-Dichlorophenyl)ethyl]-3,7-dimethyl-6-(2-naphthyl)-4-oxo-5H-pyrazolo[1,5-a]pyrazine-2-carboxamide], the IC50 stood at 7.2 nM.
Under `Cc1cc(-c2cn3nc(C(=O)NC(C)C4CCC4)c(C(F)(F)F)c3c(=O)[nH]2)ccc1Cl` (single isomer, unassigned) [6-223] stands 1.25 nM; under `Cc1ncc(-c2cn3nc(C(=O)N[C@@H](c4ccc(F)cc4)C(C)(C)O)c(C4CC4)c3c(=O)[nH]2)cc1Cl` [6-579], 0.86 nM.
Consider `Cc1cccc2ncc(-c3cn4nc(C(=O)N[C@H]5CC[C@H](O)CC5)c(C(C)C)c4c(=O)[nH]3)cc12` [Example 4-32, N-(trans-4-Hydroxycyclohexyl)-3-isopropyl-6-(5-methylquinolin-3-yl)-4-oxo-4,5-dihydropyrazolo[1,5-a]pyrazine-2-carboxamide], for which the 50% inhibitory concentration (IC50) is 6.5 nM.
As for `Cc1cc(-c2cn3nc(C(=O)N[C@H]4CCN(C5CC5)C4)c(C4CC4)c3c(=O)[nH]2)ccc1Cl` (single isomer, unassigned) [6-323], the figure is 3.3 nM; as for `CC(C)(O)[C@@H](NC(=O)c1nn2cc(-c3ccc(Cl)c(F)c3)[nH]c(=O)c2c1C1CC1)c1ccc(F)cc1` [Example 1-167, 6-(4-Chloro-3-fluorophenyl)-3-cyclopropyl-N-[(15)-1-(4-fluorophenyl)-2-hydroxy-2-methylpropyl]-4-oxo-4,5-dihydropyrazolo[1,5-a]pyrazine-2-carboxamide], 2.2 nM; as for `CC(CN1CCOCC1)NC(=O)c1nn2cc(-c3ccc4ccccc4c3)[nH]c(=O)c2c1C(F)(F)F` (racemic) [6-522], 16.9 nM.
For `CCN(CCO)CC(NC(=O)c1nn2cc(-c3ccc4ccccc4c3)[nH]c(=O)c2c1C(F)(F)F)c1ccccc1` (stereo not shown) [Example 1-28, N-[2-[Ethyl(2-hydroxyethyl)amino]-1-phenylethyl]-6-(2-naphthyl)-4-oxo-3-(trifluoromethyl)-5H-pyrazolo[1,5-a]pyrazine-2-carboxamide], the IC50 worked out at 0.855 nM.
Under `Cc1c(C(=O)NCc2cc[nH]n2)nn2c(C)c(-c3ccc4ccccc4c3)[nH]c(=O)c12` [Example 3-5, 3,7-Dimethyl-6-(naphthalen-2-yl)-4-oxo-N-[(1H-pyrazol-3-yl)methyl]-4,5-dihydropyrazolo[1,5-a]pyrazine-2-carboxamide] stands 7 nM.
As for `Cc1ccc(-c2cn3nc(C(=O)NC(c4ccc(F)cc4)C(C)(C)O)c(C4CC4)c3c(=O)[nH]2)cc1F` (racemic) [6-402], the figure is 0.82 nM; as for `O=C(N[C@@H](c1ccc(F)cc1)C(F)(F)CO)c1nn2cc(-c3cc(F)c(Cl)cc3F)[nH]c(=O)c2c1C1CC1` [6-585], 3 nM; as for `Cc1cccc2ncc(-c3cn4nc(C(=O)NC5(c6ccc(Cl)cc6)CCC5)c(C(C)C)c4c(=O)[nH]3)cc12` [Example 4-50, N-[1-(4-Chlorophenyl)cyclobutyl]-6-(5-methylquinolin-3-yl)-4-oxo-3-(propan-2-yl)-4,5-dihydropyrazolo[1,5-a]pyrazine-2-carboxamide], 8.3 nM.
For the molecule `CC(C)(O)[C@@H](NC(=O)c1nn2cc(-c3ccc(Cl)c(Cl)c3)[nH]c(=O)c2c1C1CC(F)(F)C1)c1ccc(F)cc1` [6-552], the IC50 came out at 2.55 nM.
As to `COC[C@@H](NC(=O)c1nn2cc(-c3ccc4ccccc4c3)[nH]c(=O)c2c1C#N)c1ccccc1` [Example 1-60, 3-Cyano-N-[(1S)-2-methoxy-1-phenylethyl]-6-(naphthalen-2-yl)-4-oxo-4,5-dihydropyrazolo[1,5-a]-pyrazine-2-carboxamide], the half-inhibitory concentration (IC50) amounted to 2.7 nM.
As for `Cc1ccc(-c2cn3nc(C(=O)NCCNCC(F)F)c(C(F)(F)F)c3c(=O)[nH]2)cc1Cl` [6-165], the figure is 9.75 nM; as for `Cc1cccc2ncc(-c3cn4nc(C(=O)NC(C)c5ccc6c(c5)OCCO6)c(C(C)C)c4c(=O)[nH]3)cc12` (stereo not shown) [Example 4-57, N-[1-(2,3-Dihydro-1,4-benzodioxin-6-yl)ethyl]-3-isopropyl-6-(5-methyl-3-quinolyl)-4-oxo-5H-pyrazolo[1,5-a]pyrazine-2-carboxamide], 1.9 nM; as for `O=C(N[C@@H]1CCN(CC(F)(F)F)C1)c1nn2cc(-c3ccc4ccccc4c3)[nH]c(=O)c2c1C(F)(F)F` (racemic) [6-521], 2.23 nM.
Consider `NC(=O)[C@H](NC(=O)c1cc2c(=O)[nH]c(-c3ccc4ccccc4c3)cn2n1)c1ccccc1` [6-84], for which the half-maximal inhibitory concentration (IC50) came to 5.4 nM.
Under `Cc1ccc(-c2cn3nc(C(=O)NC(c4ccccc4)C(O)C(F)(F)F)c(C)c3c(=O)[nH]2)cc1F` (stereo not shown) [6-407] stands 1.03 nM.

The record behind these values is patent US20220324865A1 (Bayer Aktiengesellschaft, priority 2018, published 2022).
